Measurements: patent US9199947B2, “Biaryl-propionic acid derivatives and their use as pharmaceuticals” (SANOFI, priority 2013, dated 2015)

Molecular target: Recombinant human cathepsin A (Homo sapiens (Human), UniProt P10619)
Assay: Cathepsin A inhibitory activity (Bodipy FL-labeled bradykinin substrate, microfluidic capillary electrophoresis)
Format: biochemical
Conditions: read-out: CATHA IC50
Experimental: Pharmacological Tests a) Cathepsin a Inhibitory Activity
Recombinant human cathepsin A (residues 29-480, with a C-terminal 10-His tag; R&D Systems, #1049-SE) was proteolytically activated with recombinant human cathepsin L (R&D Systems, #952-CY). Briefly, cathepsin A was incubated at 10 μg/ml with cathepsin L at 1 μg/ml in activation buffer (25 mM 2-(morpholin-4-yl)-ethanesulfonic acid (MES), pH 6.0, containing 5 mM dithiothreitol (DTT)) for 15 min at 37° C.
The activated cathepsin A was diluted in assay buffer (25 mM MES, pH 5.5, containing 5 mM DTT) and mixed with the test compound (dissolved in assay buffer containing (v/v) 3% DMSO) or, in the control experiments, with the vehicle in a multiple assay plate. After incubation for 15 min at room temperature, as substrate then bradykinin carrying an N-terminal® Bodipy FL (4,4-difluoro-5,7-dimethyl-4-bora-3a,4a-diaza-s-indacene-3-propionyl) label (JPT Peptide Technologies GmbH; dissolved in assay buffer) was added to the mixture. The final concentration of cathepsin A was 833 ng/ml and the final concentration of labeled bradykinin 2 μM. After incubation for 15 min at room temperature the reaction was stopped by the addition of stop buffer (130 mM 2-(4-(2-hydroxy-ethyl)-piperazin-1-yl)-ethanesulfonic acid, pH 7.4, containing (v/v) 0.013%° Triton X-100, 0.13% Coating Reagent 3 (Caliper Life Sciences), 6.5% DMSO and 20 μM ebelactone B (Sigma, #E0886)).
Uncleaved substrate and product were then separated by a microfluidic capillary electrophoresis on a LabChip® 3000 Drug Discovery System (12-Sipper-Chip; Caliper Life Sciences) and quantified by determination of the respective peak areas. Substrate turnover was calculated by dividing product peak area by the sum of substrate and product peak areas, and the enzyme activity and the inhibitory effect of the test compound thus quantified.

Recombinant human cathepsin A, sequence (P10619 29-326): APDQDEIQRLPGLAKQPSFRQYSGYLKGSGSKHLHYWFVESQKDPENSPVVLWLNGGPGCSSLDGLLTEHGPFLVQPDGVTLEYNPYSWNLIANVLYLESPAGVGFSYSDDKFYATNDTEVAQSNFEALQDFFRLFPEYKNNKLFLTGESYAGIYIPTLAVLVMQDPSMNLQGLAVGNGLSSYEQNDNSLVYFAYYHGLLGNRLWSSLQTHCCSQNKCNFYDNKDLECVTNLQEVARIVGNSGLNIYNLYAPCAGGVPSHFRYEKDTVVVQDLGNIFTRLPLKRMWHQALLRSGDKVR
Recombinant human cathepsin A, sequence (P10619 327-480): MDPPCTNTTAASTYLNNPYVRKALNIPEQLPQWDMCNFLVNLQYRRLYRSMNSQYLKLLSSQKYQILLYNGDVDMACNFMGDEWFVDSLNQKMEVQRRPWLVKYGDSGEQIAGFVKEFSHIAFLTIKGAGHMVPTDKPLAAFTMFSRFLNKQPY

| Structure (SMILES) | IC50 |
| --- | --- |
| Cc1nc(C(CC(=O)O)c2cccc(Br)c2)sc1C (stereo not drawn) [compound 2] | 7780 nM |
| Cc1cccc(-c2cccc(C(CC(=O)O)c3nccs3)c2)c1C (stereo not drawn) [compound 9] | 2480 nM |
| O=C(O)CC(c1cccc(-c2ccccc2)c1)c1nccs1 (stereo not drawn) [compound 10] | 2590 nM |
| O=C(O)CC(c1cccc(-c2cccc(F)c2Cl)c1)c1nccs1 (stereo not drawn) [compound 11] | 2720 nM |
| Cc1ccccc1-c1cccc(C(CC(=O)O)c2nccs2)c1 (stereo not drawn) [compound 12] | 3540 nM |
| O=C(O)CC(c1cccc(-c2cc(C(F)(F)F)ccc2F)c1)c1nccs1 (stereo not drawn) [compound 13] | 3620 nM |
| O=C(O)CC(c1cccc(-c2ccc(F)cc2)c1)c1nccs1 (stereo not drawn) [compound 14] | 4300 nM |
| Cc1nnc(C(CC(=O)O)c2cccc(-c3ccncc3)c2)o1 (stereo not drawn) [compound 16] | 23200 nM |
| COc1cc(-c2cccc(C(CC(=O)O)c3nccs3)c2)ccc1O (stereo not drawn) [compound 29] | 2280 nM |
| O=C(O)CC(c1cccc(-c2ccc(OCC3CC3)cc2)c1)c1nccs1 (stereo not drawn) [compound 30] | 2290 nM |
| CC(C)COc1cc(F)cc(-c2cccc(C(CC(=O)O)c3nccs3)c2)c1 (stereo not drawn) [compound 31] | 2310 nM |
| N#CCOc1ccc(-c2cccc(C(CC(=O)O)c3nccs3)c2)cc1 (stereo not drawn) [compound 32] | 2420 nM |
| O=C(O)CC(c1cccc(-c2ccc(OCc3ccccc3)c(F)c2)c1)c1nccs1 (stereo not drawn) [compound 33] | 2430 nM |
| O=C(O)CC(c1cccc(-c2cccc(OCC(F)(F)F)c2)c1)c1nccs1 (stereo not drawn) [compound 34] | 2460 nM |
| O=C(O)CC(c1cccc(-c2cccc(OCc3ccccc3)c2)c1)c1nccs1 (stereo not drawn) [compound 35] | 2770 nM |
| CC(C)COc1ccc(-c2cccc(C(CC(=O)O)c3nccs3)c2)cc1 (stereo not drawn) [compound 36] | 2810 nM |
| COc1ccc(C=O)c(-c2cccc(C(CC(=O)O)c3nccs3)c2)c1 (stereo not drawn) [compound 37] | 3200 nM |
| O=C(O)CC(c1cccc(-c2ccc(Cl)c(OCc3ccccc3)c2)c1)c1nccs1 (stereo not drawn) [compound 38] | 7870 nM |
| COc1ccc(-c2cccc(C(CC(=O)O)c3nccs3)c2)cn1 (stereo not drawn) [compound 39] | 8350 nM |
| Cc1cc(-c2cccc(C(CC(=O)O)c3nccs3)c2)n(C)n1 (stereo not drawn) [compound 40] | 9540 nM |
| O=C(O)CC(c1cccc(-c2cccnc2Cl)c1)c1nccs1 (stereo not drawn) [compound 41] | 11600 nM |
| Cn1nccc1-c1cccc(C(CC(=O)O)c2nccs2)c1 (stereo not drawn) [compound 42] | 15100 nM |
| O=C(O)CC(c1cccc(-c2ccncc2Cl)c1)c1nccs1 (stereo not drawn) [compound 43] | 19400 nM |

| Structure (SMILES) | IC50 |
| --- | --- |
| O=C(O)CC(c1cccc(-c2cccnc2)c1)c1nccs1 (stereo not drawn) [compound 44] | 21200 nM |
| N#Cc1ccc(-c2cccc(C(CC(=O)O)c3nccs3)c2)cn1 (stereo not drawn) [compound 45] | 22600 nM |
| O=C(O)CC(c1cccc(-c2ccnc(F)c2)c1)c1nccs1 (stereo not drawn) [compound 46] | 23600 nM |
| O=C(O)CC(c1cccc(-c2ccncc2F)c1)c1nccs1 (stereo not drawn) [compound 47] | 24800 nM |
| CC(=O)c1ccccc1-c1cccc(C(CC(=O)O)c2ncc(C)s2)c1 (stereo not drawn) [compound 55] | 2300 nM |
| Cc1cnc(C(CC(=O)O)c2cccc(-c3ccccc3C(N)=O)c2)s1 (stereo not drawn) [compound 56] | 5380 nM |
| Cc1cnc(C(CC(=O)O)c2cccc(-c3ccncc3F)c2)s1 (stereo not drawn) [compound 57] | 7060 nM |
| Cc1cnc(C(CC(=O)O)c2cccc(-c3cccnc3)c2)s1 (stereo not drawn) [compound 58] | 7540 nM |
| Cc1cnc(C(CC(=O)O)c2cccc(-c3cncc(C(=O)N4CCOCC4)c3)c2)s1 (stereo not drawn) [compound 59] | 13600 nM |
| Cc1cnc(C(CC(=O)O)c2cccc(-c3ccncc3)c2)s1 (stereo not drawn) [compound 60] | 13700 nM |
| COc1ccc(-c2cccc(C)c2C)cc1C(CC(=O)O)c1ncc(C)s1 (stereo not drawn) [compound 71] | 2300 nM |
| COc1ccc(-c2ccccc2F)cc1C(CC(=O)O)c1ncc(C)s1 (stereo not drawn) [compound 72] | 2340 nM |
| COc1ccc(-c2cccc(C)c2F)cc1C(CC(=O)O)c1ncc(C)s1 (stereo not drawn) [compound 73] | 2420 nM |
| COc1ccc(-c2ccc(F)cc2F)cc1C(CC(=O)O)c1ncc(C)s1 (stereo not drawn) [compound 74] | 2650 nM |
| COc1ccc(-c2ccc(C)cc2C)cc1C(CC(=O)O)c1ncc(C)s1 (stereo not drawn) [compound 75] | 3090 nM |
| COc1ccc(-c2ccc(Cl)cc2)cc1C(CC(=O)O)c1ncc(C)s1 (stereo not drawn) [compound 76] | 3200 nM |
| COc1ccc(-c2ccc(OC)c(C(CC(=O)O)c3ncc(C)s3)c2)c(F)c1 (stereo not drawn) [compound 77] | 3270 nM |
| COc1ccc(-c2ccccc2C)cc1C(CC(=O)O)c1ncc(C)s1 (stereo not drawn) [compound 78] | 3280 nM |
| COc1ccc(-c2ccc(Cl)cc2F)cc1C(CC(=O)O)c1ncc(C)s1 (stereo not drawn) [compound 79] | 3570 nM |
| COc1ccc(-c2ccc(F)cc2C)cc1C(CC(=O)O)c1ncc(C)s1 (stereo not drawn) [compound 80] | 3730 nM |
| COc1ccc(-c2cccc(Cl)c2)cc1C(CC(=O)O)c1ncc(C)s1 (stereo not drawn) [compound 81] | 3740 nM |
| COc1ccc(-c2cccc(F)c2Cl)cc1C(CC(=O)O)c1ncc(C)s1 (stereo not drawn) [compound 82] | 4010 nM |
| COc1ccc(-c2ccc(C(F)(F)F)cc2)cc1C(CC(=O)O)c1ncc(C)s1 (stereo not drawn) [compound 83] | 4380 nM |

Second part, the compound after the results:

| IC50 | Structure (SMILES) |
| --- | --- |
| 1890 nM | CC(C)(C)c1cccc(-c2cccc(C(CC(=O)O)c3nccs3)c2)c1 (stereo not drawn) [compound 1] |
| 784 nM | Cc1cccc(-c2cccc(C(CC(=O)O)c3nccs3)c2)c1 (stereo not drawn) [compound 3] |
| 797 nM | Cc1cccc(-c2cccc(C(CC(=O)O)c3nccs3)c2)c1Cl (stereo not drawn) [compound 4] |
| 967 nM | O=C(O)CC(c1cccc(-c2cccc(Cl)c2)c1)c1nccs1 (stereo not drawn) [compound 5] |
| 1670 nM | Cc1c(Cl)cccc1-c1cccc(C(CC(=O)O)c2nccs2)c1 (stereo not drawn) [compound 6] |
| 1750 nM | O=C(O)CC(c1cccc(-c2ccc(Cl)cc2)c1)c1nccs1 (stereo not drawn) [compound 7] |
| 2040 nM | O=C(O)CC(c1cccc(-c2ccccc2Cl)c1)c1nccs1 (stereo not drawn) [compound 8] |
| 634 nM | Cc1nnc(C(CC(=O)O)c2cccc(-c3cccc(Cl)c3Cl)c2)o1 (stereo not drawn) [compound 15] |
| 588 nM | COc1cccc(-c2cccc(C(CC(=O)O)c3nccs3)c2)c1F (stereo not drawn) [compound 17] |
| 769 nM | Cn1nc(-c2cccc(C(CC(=O)O)c3nccs3)c2)c2ccccc21 (stereo not drawn) [compound 18] |
| 987 nM | O=C(O)CC(c1cccc(-c2ccc3c(c2)OCCO3)c1)c1nccs1 (stereo not drawn) [compound 19] |
| 1110 nM | CCCOc1ccc(F)c(-c2cccc(C(CC(=O)O)c3nccs3)c2)c1 (stereo not drawn) [compound 20] |
| 1180 nM | COc1cccc(-c2cccc(C(CC(=O)O)c3nccs3)c2)c1 (stereo not drawn) [compound 21] |
| 1320 nM | COc1cc(F)c(-c2cccc(C(CC(=O)O)c3nccs3)c2)cc1F (stereo not drawn) [compound 22] |
| 1390 nM | Nc1ccc(-c2cccc(C(CC(=O)O)c3nccs3)c2)c(F)n1 (stereo not drawn) [compound 23] |
| 1500 nM | CCOc1cccc(-c2cccc(C(CC(=O)O)c3nccs3)c2)c1 (stereo not drawn) [compound 24] |
| 1650 nM | COc1c(C)cc(-c2cccc(C(CC(=O)O)c3nccs3)c2)cc1C (stereo not drawn) [compound 25] |
| 1670 nM | CCCOc1cccc(-c2cccc(C(CC(=O)O)c3nccs3)c2)c1 (stereo not drawn) [compound 26] |

| IC50 | Structure (SMILES) |
| --- | --- |
| 1940 nM | N#CCOc1cccc(-c2cccc(C(CC(=O)O)c3nccs3)c2)c1 (stereo not drawn) [compound 27] |
| 2250 nM | O=C(O)CC(c1cccc(-c2cccc(OC(F)(F)F)c2)c1)c1nccs1 (stereo not drawn) [compound 28] |
| 228 nM | Cc1cnc(C(CC(=O)O)c2cccc(-c3cc(Cl)ccc3F)c2)s1 (stereo not drawn) [compound 50] |
| 397 nM | COc1cccc(-c2cccc(C(CC(=O)O)c3ncc(C)s3)c2)c1F (stereo not drawn) [compound 51] |
| 466 nM | COc1cc(F)c(-c2cccc(C(CC(=O)O)c3ncc(C)s3)c2)cc1F (stereo not drawn) [compound 52] |
| 631 nM | Cc1cnc(C(CC(=O)O)c2cccc(-c3ccccc3F)c2)s1 (stereo not drawn) [compound 53] |
| 989 nM | COc1ccc(-c2cccc(C(CC(=O)O)c3ncc(C)s3)c2)c(F)c1 (stereo not drawn) [compound 54] |
| 954 nM | COc1ccc(-c2cccc(Cl)c2F)cc1C(CC(=O)O)c1ncc(C)s1 (stereo not drawn) [compound 61] |
| 970 nM | COc1ccc(-c2ccc(C)cc2F)cc1C(CC(=O)O)c1ncc(C)s1 (stereo not drawn) [compound 62] |
| 975 nM | COc1ccc(-c2cc(F)ccc2F)cc1C(CC(=O)O)c1ncc(C)s1 (stereo not drawn) [compound 63] |
| 1200 nM | COc1ccc(-c2cc(F)ccc2C)cc1C(CC(=O)O)c1ncc(C)s1 (stereo not drawn) [compound 64] |
| 1230 nM | COc1ccc(-c2cc(Cl)ccc2F)cc1C(CC(=O)O)c1ncc(C)s1 (stereo not drawn) [compound 65] |
| 1250 nM | COc1ccc(-c2cc(F)ccc2Cl)cc1C(CC(=O)O)c1ncc(C)s1 (stereo not drawn) [compound 66] |
| 1310 nM | COc1ccc(-c2cccc(Cl)c2C)cc1C(CC(=O)O)c1ncc(C)s1 (stereo not drawn) [compound 67] |
| 1590 nM | COc1ccc(-c2ccc(C)cc2)cc1C(CC(=O)O)c1ncc(C)s1 (stereo not drawn) [compound 68] |
| 1770 nM | COc1ccc(-c2cccc(F)c2F)cc1C(CC(=O)O)c1ncc(C)s1 (stereo not drawn) [compound 69] |
| 1960 nM | COc1ccc(-c2cccc(F)c2)cc1C(CC(=O)O)c1ncc(C)s1 (stereo not drawn) [compound 70] |
